Laboratory results: PubChem BioAssay AID330 (DTP/NCI, 2004)
Several values for one entry are separate records, joined by “and”; a condition that tells them apart may be missing. Identical values can stand only once. Toxic doses and inconclusive results are not listed. Peptide text beside a SMILES is read from it. * marks the point of attachment. Cbz = O=C(OCc1ccccc1)*

Test system: P388 leukemia ip, CD2F1 mice, survival T/C
Assay: NCI In Vivo Anticancer Drug Screen. Data for tumor model P388 Leukemia (intraperitoneal) in CD2F1 (CDF1) mice
Settings: endpoint: median survival time, higher = longer survival
Outline: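 Mice carrying the transplanted tumor received test compound or vehicle. Survival was recorded in each group, and the value is the treated-group measurement divided by that of the vehicle-treated control group.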

[1] = dose: 12.5 mg/kg/injection, schedule: Q01DX009 (ip), vehicle: saline with Tween-80
[2] = dose: 25.0 mg/kg/injection, schedule: Q01DX009 (ip), vehicle: saline with Tween-80
[3] = dose: 50.0 mg/kg/injection, schedule: Q01DX009 (ip), vehicle: saline with Tween-80
[4] = dose: 100.0 mg/kg/injection, schedule: Q01DX009 (ip), vehicle: saline with Tween-80
[5] = dose: 100.0 mg/kg/injection, schedule: Q04DX003 (ip), vehicle: Klucel (hydroxypropylcellulose) (HPC)
[6] = dose: 200.0 mg/kg/injection, schedule: Q04DX003 (ip), vehicle: Klucel (hydroxypropylcellulose) (HPC)
[7] = dose: 400.0 mg/kg/injection, schedule: Q04DX003 (ip), vehicle: Klucel (hydroxypropylcellulose) (HPC)
[8] = dose: 50.0 mg/kg/injection, schedule: Q01DX005 (ip), vehicle: Klucel (hydroxypropylcellulose) (HPC)
[9] = dose: 100.0 mg/kg/injection, schedule: Q01DX005 (ip), vehicle: Klucel (hydroxypropylcellulose) (HPC)
[10] = dose: 200.0 mg/kg/injection, schedule: Q01DX005 (ip), vehicle: Klucel (hydroxypropylcellulose) (HPC)
[11] = dose: 100.0 mg/kg/injection, schedule: Q04DX002 (ip), vehicle: saline with Tween-80
[12] = dose: 200.0 mg/kg/injection, schedule: Q04DX002 (ip), vehicle: saline with Tween-80
[13] = dose: 400.0 mg/kg/injection, schedule: Q04DX002 (ip), vehicle: saline with Tween-80
[14] = dose: 50.0 mg/kg/injection, schedule: Q04DX002 (ip), vehicle: saline with Tween-80
[15] = dose: 50.0 mg/kg/injection, schedule: Q01DX005 (ip), vehicle: saline with Tween-80
[16] = dose: 200.0 mg/kg/injection, schedule: Q01DX009 (ip), vehicle: saline with Tween-80

SMILES: Nc1nc(N)c2nc(-c3ccc([N+](=O)[O-])cc3)c(=O)[nH]c2n1
- T/C (dose: 60.0 mg/kg/injection, schedule: Q01DX005 (ip), vehicle: saline with Tween-80): 94 % of control
- T/C (dose: 120.0 mg/kg/injection, schedule: Q01DX005 (ip), vehicle: saline with Tween-80): 91 % of control
- T/C (dose: 240.0 mg/kg/injection, schedule: Q01DX005 (ip), vehicle: saline with Tween-80): 91 % of control

SMILES: Cc1cnc2c(N)cc(C)c(C)c2c1
- T/C [1]: 94 % of control
- T/C [2]: 100 % of control
- T/C [3]: 99 % of control and 100 % of control
- T/C [4]: 86 % of control

SMILES: Cn1nnc(-c2ccc([N+](=O)[O-])cc2)n1
- T/C [5]: 105 % of control
- T/C [6]: 103 % of control
- T/C [7]: 103 % of control

SMILES: CCc1cc2c(=O)[nH]c(-c3cccnc3)nc2s1
- T/C [8]: 106 % of control
- T/C [9]: 100 % of control
- T/C [10]: 88 % of control

SMILES: C1=C(c2ccc(OCc3ccccc3)c(OCc3ccccc3)c2)CC2CCCCC2C1 (configuration not stated)
- T/C [11]: 93 % of control
- T/C [12]: 93 % of control
- T/C [13]: 111 % of control

SMILES: O=C(O)C(CO)NC(=O)C1CCCN1C(=O)OCc1ccccc1 (stereo not drawn) (Cbz-Pro-Ser-OH; configuration not given here)
- T/C (dose: 50.0 mg/kg/injection, schedule: Q01DX005 (ip), vehicle: saline): 96 % of control
- T/C (dose: 100.0 mg/kg/injection, schedule: Q01DX005 (ip), vehicle: saline): 93 % of control

SMILES: C=C(C)C1CC2(C)C(C)C(OC(=O)/C(C)=C/C)CCC2C(OC(=O)C=C(C)C)C1=O (configuration not stated)
- T/C (dose: 75.0 mg/kg/injection, schedule: Q04DX002 (ip), vehicle: Klucel (hydroxypropylcellulose) (HPC)): 99 % of control
- T/C (dose: 150.0 mg/kg/injection, schedule: Q04DX002 (ip), vehicle: Klucel (hydroxypropylcellulose) (HPC)): 98 % of control
- T/C (dose: 300.0 mg/kg/injection, schedule: Q04DX002 (ip), vehicle: Klucel (hydroxypropylcellulose) (HPC)): 106 % of control

SMILES: S=C(Oc1ccccc1)Oc1ccccc1
- T/C (dose: 6.25 mg/kg/injection, schedule: Q01DX009 (ip), vehicle: saline with Tween-80): 95 % of control
- T/C [1]: 91 % of control
- T/C [4]: 93 % of control

SMILES: CN(C)c1ccc(/C=C/C(=O)c2nc3ccccc3[nH]2)cc1
- T/C [5]: 100 % of control
- T/C [6]: 100 % of control
- T/C [7]: 86 % of control

SMILES: Clc1ccccc1N/N=c1\nnc2c(Cl)cccc2s1
- T/C [14]: 95 % of control
- T/C [11]: 94 % of control
- T/C [12]: 91 % of control

SMILES: CN1C(=O)NC(=O)C(C)(C2(Br)CCCCC2)C1=O (configuration not stated)
- T/C (dose: 100.0 mg/kg/injection, schedule: Q01DX001 (ip), vehicle: Klucel (hydroxypropylcellulose) (HPC)): 106 % of control
- T/C (dose: 200.0 mg/kg/injection, schedule: Q01DX001 (ip), vehicle: Klucel (hydroxypropylcellulose) (HPC)): 99 % of control
- T/C (dose: 400.0 mg/kg/injection, schedule: Q01DX001 (ip), vehicle: Klucel (hydroxypropylcellulose) (HPC)): 99 % of control

SMILES: Clc1cccc(Cl)c1C(Nc1nncs1)Nc1nncs1
- T/C [14]: 124 % of control
- T/C [12]: 162 % of control and 174 % of control
- T/C [13]: 186 % of control and 192 % of control

SMILES: Cc1ccc(N(CN2C(=O)CCC2=O)CS(=O)(=O)c2ccc(C)cc2)cc1
- T/C (dose: 60.0 mg/kg/injection, schedule: Q01DX005 (ip), vehicle: Klucel (hydroxypropylcellulose) (HPC)): 97 % of control
- T/C (dose: 120.0 mg/kg/injection, schedule: Q01DX005 (ip), vehicle: Klucel (hydroxypropylcellulose) (HPC)): 98 % of control and 93 % of control
- T/C (dose: 240.0 mg/kg/injection, schedule: Q01DX005 (ip), vehicle: Klucel (hydroxypropylcellulose) (HPC)): 93 % of control and 96 % of control

SMILES: CCCCC1CCCCCCc2[nH]c(/C=C3\N=C(c4ccc[nH]4)C=C3OC)cc21 (configuration not stated)
- T/C (dose: 0.12 mg/kg/injection, schedule: Q01DX009 (ip), vehicle: saline with Tween-80): 109 % of control and 116 % of control
- T/C (dose: 0.25 mg/kg/injection, schedule: Q01DX009 (ip), vehicle: saline with Tween-80): 110 % of control and 119 % of control
- T/C (dose: 0.5 mg/kg/injection, schedule: Q01DX009 (ip), vehicle: saline with Tween-80): 115 % of control and 123 % of control
- T/C (dose: 1.0 mg/kg/injection, schedule: Q01DX009 (ip), vehicle: saline with Tween-80): 111 % of control and 90 % of control

SMILES: O=c1c2ccccc2c(=O)n2n1C1CCC2C1
- T/C [8]: 96 % of control
- T/C [9]: 110 % of control
- T/C [10]: 100 % of control

SMILES: CC1=C(C)CN(CCc2c[nH]c3ccccc23)C(C#N)C1 (configuration not stated)
- T/C (dose: 12.5 mg/kg/injection, schedule: Q01DX005 (ip), vehicle: saline with Tween-80): 102 % of control
- T/C (dose: 25.0 mg/kg/injection, schedule: Q01DX005 (ip), vehicle: saline with Tween-80): 108 % of control
- T/C [15]: 102 % of control and 117 % of control

SMILES: Nc1cc2c(cc1O)C1C(C3C2C2(Cl)C(Cl)C(Cl)C3(Cl)C2(Cl)Cl)C2(Cl)C(Cl)C(Cl)C1(Cl)C2(Cl)Cl (configuration not stated)
- T/C (dose: 50.0 mg/kg/injection, schedule: Q01DX009 (ip), vehicle: Klucel (hydroxypropylcellulose) (HPC)): 100 % of control
- T/C (dose: 100.0 mg/kg/injection, schedule: Q01DX009 (ip), vehicle: Klucel (hydroxypropylcellulose) (HPC)): 100 % of control
- T/C (dose: 200.0 mg/kg/injection, schedule: Q01DX009 (ip), vehicle: Klucel (hydroxypropylcellulose) (HPC)): 96 % of control

SMILES: CC[C@@]12C[C@]1(C(=O)OC)C(=O)N1CCc3c([nH]c4ccccc34)[C@H]12
- T/C [8]: 90 % of control
- T/C [9]: 96 % of control
- T/C [10]: 91 % of control

SMILES: N[C@@H](CSSc1ccccc1C(=O)O)C(=O)O
- T/C (dose: 100.0 mg/kg/injection, schedule: Q04DX002 (ip), vehicle: Klucel (hydroxypropylcellulose) (HPC)): 103 % of control
- T/C (dose: 200.0 mg/kg/injection, schedule: Q04DX002 (ip), vehicle: Klucel (hydroxypropylcellulose) (HPC)): 107 % of control
- T/C (dose: 400.0 mg/kg/injection, schedule: Q04DX002 (ip), vehicle: Klucel (hydroxypropylcellulose) (HPC)): 105 % of control

SMILES: COc1ccc(OC)c(/C=N/N=C2\C(=O)Nc3c(Cl)cc(Cl)cc32)c1
- T/C [15]: 97 % of control
- T/C (dose: 100.0 mg/kg/injection, schedule: Q01DX005 (ip), vehicle: saline with Tween-80): 98 % of control
- T/C (dose: 200.0 mg/kg/injection, schedule: Q01DX005 (ip), vehicle: saline with Tween-80): 92 % of control

SMILES: C=C(C)C(=O)OCC1CO1 (configuration not stated)
- T/C (dose: 50.0 mg/kg/injection, schedule: Q01DX009 (ip), vehicle: water): 100 % of control
- T/C (dose: 100.0 mg/kg/injection, schedule: Q01DX009 (ip), vehicle: water): 108 % of control
- T/C (dose: 200.0 mg/kg/injection, schedule: Q01DX009 (ip), vehicle: water): 120 % of control

SMILES: CC(C)=NOC1CCCCC1OS(=O)(=O)c1ccc(C)cc1 (configuration not stated)
- T/C [3]: 94 % of control
- T/C [4]: 95 % of control
- T/C [16]: 110 % of control

SMILES: COc1ccc(CSC(=S)Nc2ccc(Cl)c(C(F)(F)F)c2)cc1
- T/C [2]: 95 % of control
- T/C (dose: 25.0 mg/kg/injection, schedule: Q01DX009 (ip), vehicle: saline): 104 % of control
- T/C [3]: 98 % of control
- T/C (dose: 50.0 mg/kg/injection, schedule: Q01DX009 (ip), vehicle: saline): 109 % of control
- T/C (dose: 50.0 mg/kg/injection, schedule: Q01DX009 (ip), vehicle: suspension in saline): 106 % of control
- T/C [4]: 100 % of control
- T/C (dose: 100.0 mg/kg/injection, schedule: Q01DX009 (ip), vehicle: saline): 104 % of control
- T/C (dose: 100.0 mg/kg/injection, schedule: Q01DX009 (ip), vehicle: suspension in saline): 124 % of control
- T/C [16]: 91 % of control
- T/C (dose: 200.0 mg/kg/injection, schedule: Q01DX009 (ip), vehicle: suspension in saline): 124 % of control

SMILES: O=c1[nH]cnc2cc(N3CCOCC3)c([N+](=O)[O-])cc12
- T/C (dose: 50.0 mg/kg/injection, schedule: Q04DX003 (ip), vehicle: saline with Tween-80): 105 % of control
- T/C (dose: 100.0 mg/kg/injection, schedule: Q04DX003 (ip), vehicle: saline with Tween-80): 100 % of control
- T/C (dose: 200.0 mg/kg/injection, schedule: Q04DX003 (ip), vehicle: saline with Tween-80): 100 % of control

SMILES: O=C1CSC(c2c(O)ccc3ccccc23)N1CCN1C(=O)CSC1c1c(O)ccc2ccccc12 (configuration not stated)
- T/C (dose: 100.0 mg/kg/injection, schedule: Q01DX001 (ip), vehicle: saline with Tween-80): 97 % of control
- T/C (dose: 200.0 mg/kg/injection, schedule: Q01DX001 (ip), vehicle: saline with Tween-80): 92 % of control
- T/C (dose: 400.0 mg/kg/injection, schedule: Q01DX001 (ip), vehicle: saline with Tween-80): 90 % of control

SMILES: COC(=O)c1nc2c(n(C)/c1=N/C(=O)Nc1ccccc1)CCCC2
- T/C [2]: 120 % of control
- T/C [3]: 124 % of control
- T/C [4]: 216 % of control
- T/C [16]: 117 % of control
